Laboratory results: ChEMBL document CHEMBL1697781, “Assessment of the health effects of chemicals in humans: II. Construction of an adverse effects database for QSAR modeling” (Curr Drug Discov Technol, 2004)

The compounds below were run on Hepatotoxicity (assay: FDA HLAED, liver enzyme composite activity). Settings: human.
`CC(=O)O[C@]1(C(C)=O)CC[C@H]2[C@@H]3C[C@H](C)C4=CC(=O)CC[C@]4(C)[C@H]3CC[C@@]21C` [MEDROXYPROGESTERONE ACETATE] was tested, and the “Composite Activity - Active” value was 0 and the “Composite Activity - Marginal” value was 0.
For `C[C@H]1C[C@H]2[C@@H]3CCC4=CC(=O)C=C[C@]4(C)[C@@]3(F)[C@@H](O)C[C@]2(C)[C@@]1(OC(=O)c1ccccc1)C(=O)CO` [BETAMETHASONE BENZOATE], the “Composite Activity - Active” value was 0 and the “Composite Activity - Marginal” value was 0.
With `CCCCC(=O)O[C@]1(C(=O)CO)[C@@H](C)C[C@H]2[C@@H]3CCC4=CC(=O)C=C[C@]4(C)[C@@]3(F)[C@@H](O)C[C@@]21C` [BETAMETHASONE VALERATE] the “Composite Activity - Active” value was 0 and the “Composite Activity - Marginal” value was 0.
With `CN1C(=O)CCS(=O)(=O)C1c1ccc(Cl)cc1` (stereo unspecified) [CHLORMEZANONE] the “Composite Activity - Active” value was 0 and the “Composite Activity - Marginal” value was 0.
`CC[C@]1(O)C[C@H]2CN(CCc3c([nH]c4ccccc34)[C@@](C(=O)OC)(c3cc4c(cc3OC)N(C=O)[C@H]3[C@@](O)(C(=O)OC)[C@H](OC(C)=O)[C@]5(CC)C=CCN6CC[C@]43[C@@H]65)C2)C1` [VINCRISTINE] was tested, and the “Composite Activity - Active” value was 0 and the “Composite Activity - Marginal” value was 0.
`CCC1(c2ccccc2)C(=O)NCNC1=O` [PRIMIDONE] was tested, and the “Composite Activity - Active” value was 0 and the “Composite Activity - Marginal” value was 0.
In the case of `CCCCC(=O)O[C@]1(C(=O)CO)[C@H](C)C[C@H]2[C@@H]3CCC4=CC(=O)C=C[C@]4(C)[C@@]3(F)[C@@H](O)C[C@@]21C` [DEXAMETHASONE VALARATE], the “Composite Activity - Active” value is reported as 0 and the “Composite Activity - Marginal” value is reported as 0.
`CCCCCCC(=O)OCCN1CCN(CCCN2c3ccccc3Sc3ccc(C(F)(F)F)cc32)CC1` [FLUPHENAZINE ENANTHATE] was tested, and the “Composite Activity - Active” value was 0 and the “Composite Activity - Marginal” value was 0.
For `CC(C)N(CCC(C(N)=O)(c1ccccc1)c1ccccn1)C(C)C` (stereo unspecified) [DISOPYRAMIDE], the “Composite Activity - Active” value was 0 and the “Composite Activity - Marginal” value was 0.
`NC[C@H]1O[C@H](O[C@H]2[C@H](O)[C@@H](O[C@H]3O[C@H](CO)[C@@H](O)[C@H](N)[C@H]3O)[C@H](N)C[C@@H]2N)[C@H](N)C[C@@H]1O` [TOBRAMYCIN] was tested, and the “Composite Activity - Active” value was 0 and the “Composite Activity - Marginal” value was 0.
For `O=C(O)C1N=C(c2ccccc2)c2cc(Cl)ccc2NC1=O` (stereo unspecified) [CLORAZEPIC ACID], the “Composite Activity - Active” value was 0 and the “Composite Activity - Marginal” value was 0.
`NCCCCCC(=O)O` [AMINOCAPROIC ACID] was tested, and the “Composite Activity - Active” value was 0 and the “Composite Activity - Marginal” value was 0.
In the case of `CCCC(=O)O[C@]1(C(=O)COC(=O)CC)[C@@H](C)C[C@H]2[C@@H]3CCC4=CC(=O)C=C[C@]4(C)[C@@]3(F)[C@@H](O)C[C@@]21C` [BETAMETHASONE BUTYRATE PROPIONATE], the “Composite Activity - Active” value is reported as 0 and the “Composite Activity - Marginal” value is reported as 0.
In the case of `CN(C)[C@@H]1C(O)=C(C(N)=O)C(=O)[C@@]2(O)C(O)=C3C(=O)c4c(O)cccc4[C@@](C)(O)[C@H]3C[C@@H]12` [TETRACYCLINE], the “Composite Activity - Active” value is reported as 0 and the “Composite Activity - Marginal” value is reported as 0.
For `S=P(N1CC1)(N1CC1)N1CC1` [THIOTEPA], the “Composite Activity - Active” value was 0 and the “Composite Activity - Marginal” value was 0.
In the case of `CC[C@@H](CO)NCCN[C@@H](CC)CO` [ETHAMBUTOL], the “Composite Activity - Active” value is reported as 0 and the “Composite Activity - Marginal” value is reported as 0.
For `NC12CC3CC(CC(C3)C1)C2` [AMANTADINE], the “Composite Activity - Active” value was 0 and the “Composite Activity - Marginal” value was 0.
`O=C(CCCN1CCC(O)(c2ccc(Cl)cc2)CC1)c1ccc(F)cc1` [HALOPERIDOL] was tested, and the “Composite Activity - Active” value was 0 and the “Composite Activity - Marginal” value was 0.
In the case of `CC(=O)OCC(=O)[C@@]1(O)[C@@H](C)C[C@H]2[C@@H]3CCC4=CC(=O)C=C[C@]4(C)[C@@]3(F)[C@@H](O)C[C@@]21C` [BETAMETHASONE ACETATE], the “Composite Activity - Active” value is reported as 0 and the “Composite Activity - Marginal” value is reported as 0.
For `C[C@H]1C[C@@H]2[C@H]([C@@H](O)C[C@@]3(C)[C@H]2CC[C@]3(O)C(=O)COC(=O)CCCCCCC(=O)N(C)CCS(=O)(=O)O)[C@@]2(C)C=CC(=O)C=C12` [METHYLPREDNISOLONE 21-SULEPTANIC ACID ESTER], the “Composite Activity - Active” value was 0 and the “Composite Activity - Marginal” value was 0.
With `CC(=O)O[C@]1(C(C)=O)CC[C@H]2[C@@H]3C=C(C)C4=CC(=O)CC[C@]4(C)[C@H]3CC[C@@]21C` [MEGESTROL ACETATE] the “Composite Activity - Active” value was 0 and the “Composite Activity - Marginal” value was 0.
For `CC(=O)OCC(=O)[C@@]1(OC(=O)c2ccco2)[C@H](C)C[C@H]2[C@@H]3CCC4=CC(=O)C=C[C@]4(C)[C@@]3(F)[C@@H](O)C[C@@]21C` [DEXAMETHASONE ACEFURATE], the “Composite Activity - Active” value was 0 and the “Composite Activity - Marginal” value was 0.
For `OCCN1CCN(CCCN2c3ccccc3Sc3ccc(C(F)(F)F)cc32)CC1` [FLUPHENAZINE], the “Composite Activity - Active” value was 0 and the “Composite Activity - Marginal” value was 0.
In the case of `COc1cccc2c1C(=O)c1c(O)c3c(c(O)c1C2=O)C[C@@](O)(C(=O)CO)C[C@@H]3O[C@H]1C[C@H](N)[C@H](O)[C@H](C)O1` [DOXORUBICIN], the “Composite Activity - Active” value is reported as 0 and the “Composite Activity - Marginal” value is reported as 0.
For `CNNCc1ccc(C(=O)NC(C)C)cc1` [PROCARBAZINE], the “Composite Activity - Active” value was 0 and the “Composite Activity - Marginal” value was 0.
`CN(C)CCC=C1c2ccccc2CCc2ccccc21` [AMITRIPTYLINE] was tested, and the “Composite Activity - Active” value was 0 and the “Composite Activity - Marginal” value was 0.
With `O=C1CN(/N=C/c2ccc(-c3ccc([N+](=O)[O-])cc3)o2)C(O)=N1` [DANTROLENE] the “Composite Activity - Active” value was 0 and the “Composite Activity - Marginal” value was 0.
For `CC(=O)OCC(=O)[C@@]1(OC(=O)C(C)C)[C@@H](C)C[C@H]2[C@@H]3CCC4=CC(=O)C=C[C@]4(C)[C@@]3(F)[C@@H](O)C[C@@]21C` [BETAMETHASONE ACIBUTATE], the “Composite Activity - Active” value was 0 and the “Composite Activity - Marginal” value was 0.
In the case of `OCCN1CCN(CCCN2c3ccccc3Sc3ccc(Cl)cc32)CC1` [PERPHENAZINE], the “Composite Activity - Active” value is reported as 0 and the “Composite Activity - Marginal” value is reported as 0.
With `NS(=O)(=O)c1cc2c(cc1Cl)NCNS2(=O)=O` [HYDROCHLOROTHIAZIDE] the “Composite Activity - Active” value was 0 and the “Composite Activity - Marginal” value was 0.
In the case of `C[C@H]1C[C@@H]2[C@H]([C@@H](O)C[C@@]3(C)[C@H]2CC[C@]3(O)C(=O)COC(=O)CCC(=O)O)[C@@]2(C)C=CC(=O)C=C12` [METHYLPREDNISOLONE HEMISUCCINATE], the “Composite Activity - Active” value is reported as 0 and the “Composite Activity - Marginal” value is reported as 0.
In the case of `CCCCCCCCCC(=O)OCCN1CCN(CCCN2c3ccccc3Sc3ccc(C(F)(F)F)cc32)CC1` [FLUPHENAZINE DECANOATE], the “Composite Activity - Active” value is reported as 0 and the “Composite Activity - Marginal” value is reported as 0.
For `COC(=O)Nc1nc2ccc(C(=O)c3ccccc3)cc2[nH]1` [MEBENDAZOLE], the “Composite Activity - Active” value was 0 and the “Composite Activity - Marginal” value was 0.

Same assay, conditions: human, Liver
In the case of `Nc1ccc(S(=O)(=O)Nc2ncccn2)cc1` [SULFADIAZINE], the “Composite Activity - Active” value is reported as 0 and the “Composite Activity - Marginal” value is reported as 0.
With `CN(C)CCC=C1c2ccccc2C=Cc2ccccc21` [CYCLOBENZAPRINE] the “Composite Activity - Active” value was 0 and the “Composite Activity - Marginal” value was 0.
`CC1=C(C(=O)O)N2C(=O)[C@@H](NC(=O)[C@H](N)c3ccccc3)[C@H]2SC1` [CEPHALEXIN ANHYDROUS] was tested, and the “Composite Activity - Active” value was 0 and the “Composite Activity - Marginal” value was 0.
For `O=C1NC(=O)C(c2ccccc2)(c2ccccc2)N1` [PHENYTOIN], the “Composite Activity - Active” value was 0 and the “Composite Activity - Marginal” value was 0.
`CCc1cc(C(N)=S)ccn1` [ETHIONAMIDE] was tested, and the “Composite Activity - Active” value was 0 and the “Composite Activity - Marginal” value was 0.
